From US8802405B2, “Ethanologenic Clostridium species, Clostridium coskatii” (Coskata, Inc., priority 2010, dated 2014)

Assays:
Experiment in all cases: Growth on various substrates (carbon substrate utilization)
[1] = tested on: C. ljungdahlii PETC; format: cell-based, Clostridium ljungdahlii PETC; conditions: for Growth on substrate: 1 g/L carbon source, N2:CO2 (80%:20%), OD600
Procedure: (§1) Growth was measured spectrophotometrically at 600 nm (Spectronic 20D; Milton Roy). Carbon substrate utilization was based upon growth after consecutive transfers in media containing 1 g/L of each carbon source. For carbon substrates, screening was performed under an atmosphere of N2: CO2 (80%:20%). A positive growth response was recorded for an OD600 exceeding 0.2 AU. For citrate, additional ^13C-labeled isotope experiments were conducted to determine the nature of products by analysis of final 0.2 μm-filtered product samples by carbon NMR using a Bruker UltraShield Avance 400 MHz nuclear magnetic resonance spectrometer.

[2] = tested on: C. coskatii PS02; format: cell-based, Clostridium coskatii (PS02); conditions: for Growth on substrate: C. coskatii PS02, 1 g/L carbon source, N2:CO2 (80%:20%), OD600; for Chemoorganotrophic growth on substrate (in words): Clostridium coskatii (PS02)
Procedure: as §1

[3] = tested on: C. autoethangenum; format: cell-based, Clostridium autoethanogenum; conditions: for Growth on substrate: C. autoethangenum, 1 g/L carbon source, N2:CO2 (80%:20%), OD600
Procedure: as §1

[4] = tested on: C. ragsdalei; format: cell-based, Clostridium ragsdalei; conditions: for Growth on substrate: 1 g/L carbon source, N2:CO2 (80%:20%), OD600
Procedure: as §1

| Structure (SMILES) | Growth on substrate [1] | Growth on substrate [2] | Chemoorganotrophic growth on substrate (in words) [2] | Growth on substrate [3] | Growth on substrate [4] | Growth on substrate (in words) [1] | Growth on substrate (in words) ([3]; C. autoethanogenum) | Growth on substrate (in words) [4] |
| --- | --- | --- | --- | --- | --- | --- | --- | --- |
| C=C(OP(=O)(O)O)C(=O)O [Phosphoenol-pyruvate] | + (A positive growth response was recorded for an OD600 exceeding 0.2 AU) | + (A positive growth response was recorded for an OD600 exceeding 0.2 AU) | growth was observed | + (A positive growth response was recorded for an OD600 exceeding 0.2 AU) | + (A positive growth response was recorded for an OD600 exceeding 0.2 AU) | – | – | – |
| O=C(O)CC(O)(CC(=O)O)C(=O)O [Na-Citrate] | – | + (A positive growth response was recorded for an OD600 exceeding 0.2 AU) | growth was observed | – | – | inability | inability | inability |
| N[C@@H](CO)C(=O)O [Serine] | + (A positive growth response was recorded for an OD600 exceeding 0.2 AU) | + (A positive growth response was recorded for an OD600 exceeding 0.2 AU) | growth was observed | + (A positive growth response was recorded for an OD600 exceeding 0.2 AU) | + (A positive growth response was recorded for an OD600 exceeding 0.2 AU) | – | – | – |
| O=C(O)CC(=O)O [Malonic acid] | + (A positive growth response was recorded for an OD600 exceeding 0.2 AU) | + (A positive growth response was recorded for an OD600 exceeding 0.2 AU) | growth was observed | + (A positive growth response was recorded for an OD600 exceeding 0.2 AU) | + (A positive growth response was recorded for an OD600 exceeding 0.2 AU) | – | – | – |
| O=C(O)C1=C[C@@H](O)[C@@H](O)[C@H](O)C1 [Shikimic acid] | + (A positive growth response was recorded for an OD600 exceeding 0.2 AU) | + (A positive growth response was recorded for an OD600 exceeding 0.2 AU) | growth was observed | + (A positive growth response was recorded for an OD600 exceeding 0.2 AU) | + (A positive growth response was recorded for an OD600 exceeding 0.2 AU) | – | – | – |
| N=C(N)NCCC[C@H](N)C(=O)O [Arginine] | + (A positive growth response was recorded for an OD600 exceeding 0.2 AU) | + (A positive growth response was recorded for an OD600 exceeding 0.2 AU) | growth was observed | + (A positive growth response was recorded for an OD600 exceeding 0.2 AU) | – | – | – | inability |
| O=C(O)[C@H](O)[C@@H](O)[C@H](O)[C@H](O)CO [D-Gluconic Acid] | + (A positive growth response was recorded for an OD600 exceeding 0.2 AU) | – | inability | + (A positive growth response was recorded for an OD600 exceeding 0.2 AU) | – | – | – | – |
| NC(=O)CC[C@H](N)C(=O)O [Glutamine] | + (A positive growth response was recorded for an OD600 exceeding 0.2 AU) | + (A positive growth response was recorded for an OD600 exceeding 0.2 AU) | growth was observed | + (A positive growth response was recorded for an OD600 exceeding 0.2 AU) | + (A positive growth response was recorded for an OD600 exceeding 0.2 AU) | – | – | – |
| N[C@@H](CCC(=O)O)C(=O)O [Glutamate] | + (A positive growth response was recorded for an OD600 exceeding 0.2 AU) | + (A positive growth response was recorded for an OD600 exceeding 0.2 AU) | growth was observed | + (A positive growth response was recorded for an OD600 exceeding 0.2 AU) | + (A positive growth response was recorded for an OD600 exceeding 0.2 AU) | – | – | – |
| O=C(CO)[C@@H](O)[C@H](O)[C@H](O)CO [Fructose] | + (A positive growth response was recorded for an OD600 exceeding 0.2 AU) | + (A positive growth response was recorded for an OD600 exceeding 0.2 AU) | growth was observed | + (A positive growth response was recorded for an OD600 exceeding 0.2 AU) | + (A positive growth response was recorded for an OD600 exceeding 0.2 AU) | – | – | – |
| CC(=O)C(=O)O [Na-Pyruvate] | + (A positive growth response was recorded for an OD600 exceeding 0.2 AU) | + (A positive growth response was recorded for an OD600 exceeding 0.2 AU) | growth was observed | + (A positive growth response was recorded for an OD600 exceeding 0.2 AU) | + (A positive growth response was recorded for an OD600 exceeding 0.2 AU) | – | – | – |
| OCc1ccccc1O[C@@H]1O[C@H](CO)[C@@H](O)[C@H](O)[C@H]1O [Salicin] | + (A positive growth response was recorded for an OD600 exceeding 0.2 AU) | + (A positive growth response was recorded for an OD600 exceeding 0.2 AU) | growth was observed | + (A positive growth response was recorded for an OD600 exceeding 0.2 AU) | + (A positive growth response was recorded for an OD600 exceeding 0.2 AU) | – | – | – |
| O=C(O)/C=C\C(=O)O [Maleic acid] | + (A positive growth response was recorded for an OD600 exceeding 0.2 AU) | + (A positive growth response was recorded for an OD600 exceeding 0.2 AU) | – | + (A positive growth response was recorded for an OD600 exceeding 0.2 AU) | – | – | – | inability |
| O=C([O-])CCC(=O)[O-].[Na+].[Na+] [Na-Succinate] | + (A positive growth response was recorded for an OD600 exceeding 0.2 AU) | + (A positive growth response was recorded for an OD600 exceeding 0.2 AU) | growth was observed | + (A positive growth response was recorded for an OD600 exceeding 0.2 AU) | + (A positive growth response was recorded for an OD600 exceeding 0.2 AU) | – | – | – |
| N[C@@H](Cc1c[nH]cn1)C(=O)O [Histidine] | + (A positive growth response was recorded for an OD600 exceeding 0.2 AU) | + (A positive growth response was recorded for an OD600 exceeding 0.2 AU) | growth was observed | + (A positive growth response was recorded for an OD600 exceeding 0.2 AU) | – | – | – | inability |
| C[C@H](N)C(=O)O [Alanine] | + (A positive growth response was recorded for an OD600 exceeding 0.2 AU) | + (A positive growth response was recorded for an OD600 exceeding 0.2 AU) | growth was observed | + (A positive growth response was recorded for an OD600 exceeding 0.2 AU) | + (A positive growth response was recorded for an OD600 exceeding 0.2 AU) | – | – | – |
| OC[C@H]1O[C@@](CO)(O[C@H]2O[C@H](CO)[C@@H](O)[C@H](O)[C@H]2O)[C@@H](O)[C@@H]1O [Sucrose] | + (A positive growth response was recorded for an OD600 exceeding 0.2 AU) | + (A positive growth response was recorded for an OD600 exceeding 0.2 AU) | growth was observed | + (A positive growth response was recorded for an OD600 exceeding 0.2 AU) | + (A positive growth response was recorded for an OD600 exceeding 0.2 AU) | – | – | – |
| O=C(O)CC(=O)C(=O)O [Oxaloacetic acid] | – | + (A positive growth response was recorded for an OD600 exceeding 0.2 AU) | growth was observed | + (A positive growth response was recorded for an OD600 exceeding 0.2 AU) | – | – | – | inability |
| O=C[C@H](O)[C@@H](O)[C@H](O)CO [Xylose] | + (A positive growth response was recorded for an OD600 exceeding 0.2 AU) | + (A positive growth response was recorded for an OD600 exceeding 0.2 AU) | growth was observed | + (A positive growth response was recorded for an OD600 exceeding 0.2 AU) | + (A positive growth response was recorded for an OD600 exceeding 0.2 AU) | – | – | – |
| O=C(O)CC(O)C(=O)O (stereo not drawn) [Malic acid] | + (A positive growth response was recorded for an OD600 exceeding 0.2 AU) | + (A positive growth response was recorded for an OD600 exceeding 0.2 AU) | growth was observed | + (A positive growth response was recorded for an OD600 exceeding 0.2 AU) | + (A positive growth response was recorded for an OD600 exceeding 0.2 AU) | – | – | – |
| C[C@H](O)[C@H](O)[C@@H](O)[C@@H](O)C=O [Rhamnose] | + (A positive growth response was recorded for an OD600 exceeding 0.2 AU) | – | inability | + (A positive growth response was recorded for an OD600 exceeding 0.2 AU) | – | – | – | – |
